The molecules below were run against T1, PDE7 (type VII phosphodiesterase) (Homo sapiens, UniProt Q13946) (assay: PDE7 inhibiting activity (3H-cAMP hydrolysis, active fraction from MOLT-4 cells)). Conditions: PDE7 fraction from MOLT-4 cells, 0.064 μM cAMP, 10 μM rolipram present, 2 hours at 25° C.; read-out: IC50 values for phosphodiesterase inhibiting activities (PDE7).
T1 construct: endogenous in cells; host or cells: MOLT-4 (ATCC CRL-1582), soluble fraction, HiTrapQ anion-exchange fraction
Format: biochemical
Description: To evaluate the compounds of the present invention for the ability to suppress PDE7 (type VII phosphodiesterase), the method of Biochemical Pharmacol. 48(6), 1219-1223 (1994) was partially modified to perform the following assay:
1) PDE7 (type VII phosphodiesterase) active fraction was obtained. That is, human acute lymphoblastoid lymphoma T cell strain MOLT-4 (purchasable from ATCC under ATCC No. CRL-1582) was cultured in RPMI1640 medium containing 10% fetal bovine serum to obtain 5×10^8 MOLT4 cells. The cells were harvested by centrifugation, and suspended in 10 ml of buffer A (25 mM tris-HCl, 5 mM 2-mercaptoethanol, 2 mM benzamidine, 2 mM EDTA, 0.1 mM 4-(2-aminoethyl)benzenesulfonyl hydrochloride, pH 7=7.5). The cells were homogenized in a Polytoron homogenizer, and centrifuged (4° C., 25,000 G, 10 min). The supernatant was further ultracentrifuged (4° C., 100,000 G, 60 min), and the resulting supernatant was filtered through a 0.2 μm filter to obtain a soluble fraction.
2) HiTrapQ column (5 ml×2) equilibrated with buffer A was charged with the resulting soluble fraction. Phosphodiesterase was eluted using 300 ml of buffer A containing a linear gradient solution of 0 to 0.8M sodium chloride to collect sixty 5 ml fractions. Each fraction was tested for cAMP metabolizing phosphodiesterase activity.
3) The test compounds at desired concentrations were each reacted for 2 hours at 25° C. in a reactant mixture containing 20 mM tris-HCl (pH 7.5), 1 mM MgCl2, 100 μM EDTA, 330 μg/ml bovine serum albumin, 4 μg/ml 5′-nucleotidase, 0.1 μCi^3H-cAMP (0.064 μM cAMP), 10 μM rolipram, and the type VII phosphodiesterase stored solution. QAE-Sephadex suspended in 10 mM HEPES-Na (pH 7.0) was added to the reaction mixture, and the mixture was allowed to stand for 5 minutes. Then, the supernatant was recovered, and QAE-Sephadex was further added, followed by allowing the mixture to stand for 5 minutes. Then, the resulting supernatant was measure for radioactivity.
4) IC50, as the concentration of the test compound that inhibited 50% of the metabolic activity of PDE7, was calculated for each of the compounds.

T1 sequence (Q13946 whole entry): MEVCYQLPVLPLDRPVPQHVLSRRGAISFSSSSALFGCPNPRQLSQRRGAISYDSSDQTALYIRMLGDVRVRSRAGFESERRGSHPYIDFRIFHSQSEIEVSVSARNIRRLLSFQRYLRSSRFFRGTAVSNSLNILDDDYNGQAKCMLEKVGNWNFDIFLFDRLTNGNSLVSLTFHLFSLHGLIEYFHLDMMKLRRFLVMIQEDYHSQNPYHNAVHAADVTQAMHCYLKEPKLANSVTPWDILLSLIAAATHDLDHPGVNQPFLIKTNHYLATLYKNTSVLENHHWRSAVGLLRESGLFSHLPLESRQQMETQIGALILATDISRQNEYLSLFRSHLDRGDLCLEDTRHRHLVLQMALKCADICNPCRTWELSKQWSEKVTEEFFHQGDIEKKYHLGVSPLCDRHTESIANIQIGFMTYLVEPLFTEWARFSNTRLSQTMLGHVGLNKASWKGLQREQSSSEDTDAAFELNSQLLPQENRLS

IC50 [nM] | SMILES
≤ 1000 | CNC1CCN(c2ccc(-c3nc4c(c(C5CCCCC5)nn4C)c(=O)[nH]3)cc2)CC1 [Example 189, 3-Cyclohexyl-1-methyl-6-{4-[4-(methylamino)-1-piperidinyl]phenyl}-1,5-dihydro-4H-pyrazolo[3,4-d]pyrimidin-4-one monomethanesulfonate]
≤ 1000 | COc1cc(N2CC[C@@H](O)C2)ccc1-c1nc2c(C)nn(C3CCCCC3)c2c(=O)[nH]1 [Example 270, 1-Cyclohexyl-5-{4-[(3R)-3-hydroxypyrrolidinyl]-2-methoxyphenyl}-3-methyl-1,6-dihydro-7H-pyrazolo[4,3-d]pyrimidin-7-one]
≤ 1000 | COc1cc(N2CCC(N(C)C)CC2)ccc1-c1nc2c(C)nn(C3CCCCC3)c2c(=O)[nH]1 [Example 245, 1-Cyclohexyl-5-{4-[4-(dimethylamino)-1-piperidinyl]-2-methoxyphenyl}-3-methyl-1,6-dihydro-7H-pyrazolo[4,3-d]pyrimidin-7-one]
≤ 1000 | COCCNS(=O)(=O)c1ccc(-c2nc3c(c(C4CCCCC4)nn3C)c(=O)[nH]2)c(OC)c1 [Example 57, 4-(3-Cyclohexyl-1-methyl-4-oxo-4,5-dihydro-1H-pyrazolo[3,4-d]pyrimidin-6-yl)-3-methoxy-N-(2-methoxyethyl) benzenesulfonamide]
≤ 1000 | COc1cc(S(=O)(=O)N2CCN(C)CC2)ccc1-c1nc2c(c(C3CCCCC3)nn2C)c(=O)[nH]1 [Example 50, 3-Cyclohexyl-6-{2-methoxy-4-[(4-methyl-1-piperazinyl)sulfonyl]phenyl}-1-methyl-1,5-dihydro-4H-pyrazolo[3,4-d]pyrimidin-4-one monochloride]
≤ 1000 | CCNc1ccc(-c2nc3c(C)nn(C4CCCCC4)c3c(=O)[nH]2)c(OC)c1 [Example 275, 1-Cyclohexyl-5-[4-(ethylamino)-2-methoxyphenyl]-3-methyl-1,6-dihydro-7H-pyrazolo[4,3-d]pyrimidin-7-one]
≤ 1000 | CCOc1cc(S(=O)(=O)N2CCCN(C)CC2)ccc1-c1nc2c(C)nn(C3CCCCC3)c2c(=O)[nH]1 [Example 256, 1-Cyclohexyl-5-{2-ethoxy-4-[(4-methyl-1,4-diazepan-1-yl)sulfonyl]phenyl}-3-methyl-1,6-dihydro-7H-pyrazolo[4,3-d]pyrimidin-7-one]
≤ 10 | COc1cc(N2CCN(C)CC2)ccc1-c1nc2c(c(C3CCCCC3)nn2C)c(=O)[nH]1 [Example 27, 3-Cyclohexyl-6-[2-methoxy-4-(4-methyl-1-piperazinyl)phenyl]-1-methyl-1,5-dihydro-4H-pyrazolo[3,4-d]pyrimidin-4-one]
≤ 1000 | COc1cc(C(=O)N2CCC(O)CC2)ccc1-c1nc2c(c(C3CCCCC3)nn2C)c(=O)[nH]1 [Example 69, 3-Cyclohexyl-6-{4-[(4-hydroxy-1-piperidinyl)carbonyl]-2-methoxyphenyl}-1-methyl-1,5-dihydro-4H-pyrazolo[3,4-d]pyrimidin-4-one]
≤ 1000 | COc1cc(O[C@@H]2CCOC2)ccc1-c1nc2c(c(C3CCCCC3)nn2C)c(=O)[nH]1 [Example 39, 3-Cyclohexyl-6-{2-methoxy-4-[(3R)-tetrahydro-3-furanyloxy]phenyl}-1-methyl-1,5-dihydro-4H-pyrazolo[3,4-d]pyrimidin-4-one]
≤ 10 | COc1cc(NC2CCNCC2)ccc1-c1nc2c(C)nn(C3CCCCC3)c2c(=O)[nH]1 [Example 224, 1-Cyclohexyl-5-[2-methoxy-4-(4-piperidinylamino)phenyl]-3-methyl-1,6-dihydro-7H-pyrazolo[4,3-d]pyrimidin-7-one]
≤ 10 | COc1cc(NC(N)=O)ccc1-c1nc2c(c(C3CCCCC3)nn2C)c(=O)[nH]1 [Example 140, N-[4-(3-cyclohexyl-1-methyl-4-oxo-4,5-dihydro-1H-pyrazolo[3,4-d]pyrimidin-6-yl)-3-methoxyphenyl]urea]
≤ 1000 | CN1CCN(c2ccc(-c3nc4c(c(C5CCCCC5)nn4C)c(=O)[nH]3)cc2)CC1 [Example 179, 3-Cyclohexyl-1-methyl-6-[4-(4-methyl-1-piperazinyl)phenyl]-1,5-dihydro-4H-pyrazolo[3,4-d]pyrimidin-4-one monomethanesulfonate]
≤ 1000 | CCN1CCN(S(=O)(=O)c2ccc(-c3nc4c(C)nn(C5CCCCC5)c4c(=O)[nH]3)c(OC)c2)CC1 [Example 218, 1-Cyclohexyl-5-{4-[(4-ethyl-1-piperazinyl)sulfonyl]-2-methoxyphenyl}-3-methyl-1,6-dihydro-7H-pyrazolo[4,3-d]pyrimidin-7-one]
≤ 10 | COc1cc(N2CCC(CO)CC2)ccc1-c1nc2c(C)nn(C3CCCCC3)c2c(=O)[nH]1 [Example 109, 1-Cyclohexyl-5-{4-[4-(hydroxymethyl)-1-piperidinyl]-2-methoxyphenyl}-3-methyl-1,6-dihydro-7H-pyrazolo[4,3-d]pyrimidin-7-one]
≤ 1000 | COc1cc(N2CCC(N)CC2)ccc1-c1nc2c(C)nn(C3CCCCC3)c2c(=O)[nH]1 [Example 247, 5-[4-(4-Amino-1-piperidinyl)-2-methoxyphenyl]-1-cyclohexyl-3-methyl-1,6-dihydro-7H-pyrazolo[4,3-d]pyrimidin-7-one]
≤ 1000 | COc1cc(CN2CCN(C)CC2)ccc1-c1nc2c(C)nn(C3CCCCC3)c2c(=O)[nH]1 [Example 234, 1-Cyclohexyl-5-{2-methoxy-4-[(4-methyl-1-piperazinyl)methyl]phenyl}-3-methyl-1,6-dihydro-7H-pyrazolo[4,3-d]pyrimidin-7-one]
≤ 10 | CCOc1cc(N2CCC(NC)CC2)ccc1-c1nc2c(C)nn(C3CCCCC3)c2c(=O)[nH]1 [Example 121, 1-Cyclohexyl-5-{2-ethoxy-4-[4-(methylamino)-1-piperidinyl]phenyl}-3-methyl-1,6-dihydro-7H-pyrazolo[4,3-d]pyrimidin-7-one]
≤ 1000 | COc1cc(S(=O)(=O)NCCO)ccc1-c1nc2c(c(C3CCCCC3)nn2C)c(=O)[nH]1 [Example 58, 4-(3-Cyclohexyl-1-methyl-4-oxo-4,5-dihydro-1H-pyrazolo[3,4-d]pyrimidin-6-yl)-N-(2-hydroxyethyl)-3-methoxybenzenesulfonamide]
≤ 1000 | Cc1nn(C2CCCCC2)c2c(=O)[nH]c(-c3ccc(N4CCC(O)CC4)cc3)nc12 [Example 14, 1-Cyclohexyl-5-[4-(4-hydroxy-1-piperidinyl)phenyl]-3-methyl-1,6-dihydro-7H-pyrazolo[4,3-d]pyrimidin-7-one]
≤ 10 | COc1cc(O[C@H]2CCOC2)ccc1-c1nc2c(c(C3CCCCC3)nn2C)c(=O)[nH]1 [Example 38, 3-Cyclohexyl-6-{2-methoxy-4-[(3S)-tetrahydro-3-furanyloxy]phenyl}-1-methyl-1,5-dihydro-4H-pyrazolo[3,4-d]pyrimidin-4-one]
≤ 1000 | COc1cc(NC(C)=O)ccc1-c1nc2c(C)nn(C3CCCCC3)c2c(=O)[nH]1 [Example 10, N-[4-(1-cyclohexyl-3-methyl-7-oxo-6,7-dihydro-1H-pyrazolo[4,3-d]pyrimidin-5-yl)-3-methoxyphenyl]acetamide]
≤ 1000 | COc1cc(CN2CCOCC2)ccc1-c1nc2c(C)nn(C3CCCCC3)c2c(=O)[nH]1 [Example 235, 1-Cyclohexyl-5-[2-methoxy-4-(4-morpholinylmethyl)phenyl]-3-methyl-1,6-dihydro-7H-pyrazolo[4,3-d]pyrimidin-7-one]
≤ 1000 | CCn1nc(C2CCCCC2)c2c(=O)[nH]c(-c3ccc(N4CCC(NC)CC4)cc3OC)nc21 [Example 196]
≤ 1000 | COc1ccccc1-c1nc2c(C)nn(C3CCCCC3)c2c(=O)[nH]1 [Example 5, 1-Cyclohexyl-5-(2-methoxyphenyl)-3-methyl-1,6-dihydro-7H-pyrazolo[4,3-d]pyrimidin-7-one]
≤ 1000 | Cn1nc(C2CCCCC2)c2c(=O)[nH]c(-c3ccccn3)nc21 [Example 25, 3-Cyclohexyl-1-methyl-6-(2-pyridinyl)-1,5-dihydro-4H-pyrazolo[3,4-d]pyrimidin-4-one]

SMILES | IC50 [nM]
COc1cc(N(C)C2CCN(C)CC2)ccc1-c1nc2c(C)nn(C3CCCCC3)c2c(=O)[nH]1 [Example 267, 1-Cyclohexyl-5-{2-methoxy-4-[methyl(1-methyl-4-piperidinyl)amino]phenyl}-3-methyl-1,6-dihydro-7H-pyrazolo[4,3-d]pyrimidin-7-one] | ≤ 1000
COc1cc(C2=CCN(C)CC2)ccc1-c1nc2c(C)nn(C3CCCCC3)c2c(=O)[nH]1 [Example 123, 1-Cyclohexyl-5-[2-methoxy-4-(1-methyl-1,2,3,6-tetrahydro-4-pyridinyl)phenyl]-3-methyl-1,6-dihydro-7H-pyrazolo[4,3-d]pyrimidin-7-one] | ≤ 1000

Reference: patent publication US7268128B2, “1,3,5-trisubstituted-5-phenyl and 5-pyridyl pyrazolopyrimidinone derivatives having PDE7 inhibiting action” (Ausbio Pharma Co., Ltd., priority 2001, dated 2007)
